Reference: US7507727B2, “Substituted quinobenzoxazine analogs and methods of using thereof” (Cylene Pharmaceuticals, Inc., priority 2003, dated 2009)

Target: c-Myc template DNA (c-myc quadruplex)
Assay: Quadruplex binding / stop assay (Taq polymerase arrest, capillary electrophoresis)
Settings: read-out: S DATA; Table 1D, stop assay data

SMILES | IC50 [µM]
CN1CCCC1CCNC(=O)c1cn2c3c(c(N4CCC(n5c(=O)[nH]c6ccccc65)CC4)c(F)cc3c1=O)Oc1cc3ccccc3cc1-2 (stereo not shown) [compound 1477] | 1
CN1CCCC1CCNC(=O)c1cn2c3c(c(NC4CC(C)(C)NC(C)(C)C4)c(F)cc3c1=O)Oc1cc3ccccc3cc1-2 (stereo not shown) [compound 1478] | 1
CCN(CC)C(=O)C1CCCN(c2c(F)cc3c(=O)c(C(=O)NCCC4CCCN4C)cn4c3c2Oc2cc3ccccc3cc2-4)C1 (stereo not shown) [compound 1479] | 1.75

Same assay, conditions: read-out: Stop Data c-Myc μM; concentration at which 50% of the DNA was arrested (arrested:full-length 1:1)

SMILES | IC50 [µM]
CN1CCCC1CCNC(=O)c1cn2c3c(c(NCCN4CCCC4)ccc3c1=O)Oc1cc3ccccc3cc1-2 (stereo not shown) [compound 446] | 0.75
CC1(C)CC(NC(=O)c2cn3c4c(c(NCCN5CCCC5)ccc4c2=O)Oc2cc4ccccc4cc2-3)CC(C)(C)N1 [compound 447] | 0.75
CN1CCCC1CCNc1ccc2c(=O)c(C(=O)NCCN3CCCC3)cn3c2c1Oc1cc2ccccc2cc1-3 (stereo not shown) [compound 448] | 0.75
CN1CCCC1CCNC(=O)c1cn2c3c(c(NCCC4CCCN4C)ccc3c1=O)Oc1cc3ccccc3cc1-2 (stereo not shown) [compound 449] | 0.75
CN(C)CCCCNC(=O)c1cn2c3c(c(NCCC4CCCN4C)ccc3c1=O)Oc1cc3ccccc3cc1-2 (stereo not shown) [compound 450] | 0.75
CN1CCCC1CCNC(=O)c1cn2c3c(c(N4CCC(NC(=O)OC(C)(C)C)C4)ccc3c1=O)Oc1cc3ccccc3cc1-2 (stereo not shown) [compound 451] | 0.75
CN(C)CCCCNC(=O)c1cn2c3c(c(N4CCC(NC(=O)OC(C)(C)C)C4)ccc3c1=O)Oc1cc3ccccc3cc1-2 (stereo not shown) [compound 452] | 0.75
CN(C)CCCCNc1ccc2c(=O)c(C(=O)NCCN3CCOCC3)cn3c2c1Oc1cc2ccccc2cc1-3 [compound 453] | 0.75
CN1CCN(CCCNc2ccc3c(=O)c(C(=O)NCCN4CCCC4)cn4c3c2Oc2cc3ccccc3cc2-4)CC1 [compound 454] | 0.75
CN1CCN(CCCNc2ccc3c(=O)c(C(=O)NCCC4CCCN4C)cn4c3c2Oc2cc3ccccc3cc2-4)CC1 (stereo not shown) [compound 455] | 0.75
CN(C)CCCCNC(=O)c1cn2c3c(c(NCCCN4CCN(C)CC4)ccc3c1=O)Oc1cc3ccccc3cc1-2 [compound 456] | 0.75
NC1CCN(c2ccc3c(=O)c(C(=O)NCCCN4CCOCC4)cn4c3c2Oc2cc3ccccc3cc2-4)C1 (stereo not shown) [compound 457] | 0.75
CN1CCCC1CCNC(=O)c1cn2c3c(c(C4C[C@@H](N)[C@H](c5ccccc5)C4)c(F)cc3c1=O)Oc1cc3ccccc3cc1-2 (stereo partly shown) [compound 458] | 0.75
CN1CCN(CCCNC(=O)c2cn3c4c(c(N5CCC(N)C5)c(F)cc4c2=O)Oc2ccccc2-3)CC1 (stereo not shown) [compound 459] | 0.75
CN(C)CCCCNC(=O)c1cn2c3c(c(N4CCC(N)C4)c(F)cc3c1=O)Oc1ccccc1-2 (stereo not shown) [compound 460] | 0.75
CN1CCN(CCCNC(=O)c2cn3c4c(c(N5CC6CCCNC6C5)c(F)cc4c2=O)Oc2cc4ccccc4cc2-3)CC1 (stereo not shown) [compound 461] | 0.75
O=C(NCCN1CCCC1)c1cn2c3c(c(N4CCC(c5cnccn5)C4)c(F)cc3c1=O)Oc1cc3ccccc3cc1-2 (stereo not shown) [compound 462] | 0.75
CCOC(CCCNc1c(F)cc2c(=O)c(C(=O)NCCC3CCCN3C)cn3c2c1Oc1cc2ccccc2cc1-3)OCC (stereo not shown) [compound 463] | 0.75
CN(C)c1cccc(CNc2c(F)cc3c(=O)c(C(=O)NCCC4CCCN4C)cn4c3c2Oc2cc3ccccc3cc2-4)c1 (stereo not shown) [compound 464] | 0.75
CC1CCCC(C)N1CCCNC(=O)c1cn2c3c(c(N4CCC(N)C4)c(F)cc3c1=O)Oc1cc3ccccc3cc1-2 (stereo not shown) [compound 465] | 0.75
NCCCNC(=O)c1cn2c3c(c(N4CCC(N)C4)c(F)cc3c1=O)Oc1cc3ccccc3cc1-2 (stereo not shown) [compound 466] | 0.75

SMILES | IC50 [µM]
CN1CCC(NC(=O)c2cn3c4c(c(N5CCC(N)C5)c(F)cc4c2=O)Oc2cc4ccccc4cc2-3)CC1 (stereo not shown) [compound 467] | 0.75
CN1CCC[C@@H]1CCNC(=O)c1cn2c3c(c(N4CCC(c5cnccn5)C4)c(F)cc3c1=O)Oc1cc3ccccc3cc1-2 (stereo partly shown) [compound 468] | 0.74
CN1CCC[C@H]1CCNC(=O)c1cn2c3c(c(N4CCC(c5cnccn5)C4)c(F)cc3c1=O)Oc1cc3ccccc3cc1-2 (stereo partly shown) [compound 469] | 0.73
CN(C)CCCCNC(=O)c1cn2c3c(c(NCCCCN(C)C)c(F)cc3c1=O)Oc1c-2ccc2ccccc12 [compound 470] | 0.64
N=C(N)NCCNC(=O)c1cn2c3c(c(N4CC5CCCNC5C4)c(F)cc3c1=O)Oc1cc3ccccc3cc1-2 (stereo not shown) [compound 471] | 0.64
CN(C)CCCCNC(=O)c1cn2c3c(c(NCCN4CCCC4)c(F)cc3c1=O)Oc1c-2ccc2ccccc12 [compound 473] | 0.62
CN1CCCC1CCNc1c(F)cc2c(=O)c(C(=O)NCCCN3CCOCC3)cn3c2c1Oc1c-3ccc2ccccc12 (stereo not shown) [compound 476] | 0.58
CN(C)CCCCNc1c(F)cc2c(=O)c(C(=O)NCCCN3CCN(C)CC3)cn3c2c1Oc1c-3ccc2ccccc12 [compound 478] | 0.53
CN1CCCC1CCNc1c(F)cc2c(=O)c(C(=O)NCCN3CCCC3)cn3c2c1Oc1cc2ccccc2cc1-3 (stereo not shown) [compound 488] | 0.5
CN1CCCC1CCNC(=O)c1cn2c3cc4c(=O)c5ccccc5c(=O)c4cc3oc3c(N4CCC(N)C4)c(F)cc(c1=O)c32 (stereo not shown) [compound 489] | 0.5
CN(C)CCCCNC(=O)c1cn2c3cc4c(cc3oc3c(NCCN5CCOCC5)c(F)cc(c1=O)c32)c(=O)c1ccccc14 [compound 490] | 0.5
CN1CCN(CCCNC(=O)c2cn3c4cc5c(=O)c6ccccc6c(=O)c5cc4oc4c(NCCN5CCCC5)c(F)cc(c2=O)c43)CC1 [compound 491] | 0.45
CN1CCN(CCCNc2c(F)cc3c(=O)c(C(=O)NCCCN4CCOCC4)cn4c5cc6c(=O)c7ccccc7c(=O)c6cc5oc2c34)CC1 [compound 492] | 0.45
CN1CCCC1CCNc1c(F)cc2c(=O)c(C(=O)N3CCOCC3)cn3c2c1Oc1cc2ccccc2cc1-3 (stereo not shown) [compound 495] | 0.42
CN(C)CCCCNc1c(F)cc2c(=O)c(C(=O)NCCN3CCCC3)cn3c2c1Oc1c-3ccc2ccccc12 [compound 498] | 0.41
NC1CCN(C(=O)c2cn3c4cc5c(=O)c6ccccc6c(=O)c5cc4oc4c(N5CCC(N)C5)c(F)cc(c2=O)c43)C1 (stereo not shown) [compound 499] | 0.4
CN1CCCC1CCNC(=O)c1cn2c3c(c(NCCC4CCCN4C)c(F)cc3c1=O)Oc1c-2ccc2ccccc12 (stereo not shown) [compound 525] | 0.375
CN1CCN(CCCNC(=O)c2cn3c4c(c(NCCC5CCCN5C)c(F)cc4c2=O)Oc2c-3ccc3ccccc23)CC1 (stereo not shown) [compound 549] | 0.375
CN(C)CCCCNC(=O)c1cn2c3c(c(NCCC4CCCN4C)c(F)cc3c1=O)Oc1c-2ccc2ccccc12 (stereo not shown) [compound 550] | 0.375
NC1CCN(c2c(F)cc3c(=O)c(C(=O)NCCCN4CCOCC4)cn4c5cc6c(=O)c7ccccc7c(=O)c6cc5oc2c34)C1 (stereo not shown) [compound 551] | 0.375
O=C(NCCCN1CCOCC1)c1cn2c3cc4oc5cc([N+](=O)[O-])ccc5[nH]c4cc3oc3c(NCCN4CCCC4)c(F)cc(c1=O)c32 [compound 552] | 0.375

SMILES | IC50 [µM]
CN1CCCC1CCNc1c(F)cc2c(=O)c(C(=O)NCCCN3CCOCC3)cn3c4cc5oc6cc([N+](=O)[O-])ccc6[nH]c5cc4oc1c23 (stereo not shown) [compound 553] | 0.375
O=C(NCCN1CCCC1)c1cn2c3cc4oc5cc([N+](=O)[O-])ccc5[nH]c4cc3oc3c(NCCCN4CCOCC4)c(F)cc(c1=O)c32 [compound 554] | 0.375
CN(C)CCCCNC(=O)c1cn2c3cc4oc5cc([N+](=O)[O-])ccc5[nH]c4cc3oc3c(NCCCN4CCOCC4)c(F)cc(c1=O)c32 [compound 555] | 0.375
CN(C)CCCCNc1c(F)cc2c(=O)c(C(=O)NCCCN3CCOCC3)cn3c4cc5oc6cc([N+](=O)[O-])ccc6[nH]c5cc4oc1c23 [compound 556] | 0.375
CC1CCCCN1CCCNc1c(F)cc2c(=O)c(C(=O)NCCC3CCCN3C)cn3c2c1Oc1cc2ccccc2cc1-3 (stereo not shown) [compound 557] | 0.375
CC1(C)CC(NC(=O)c2cn3c4c(c(N5CCC(N)C5)ccc4c2=O)Oc2cc4ccccc4cc2-3)CC(C)(C)N1 (stereo not shown) [compound 558] | 0.375
CN1CCCC1CCNC(=O)c1cn2c3c(c(NCC4CCNC4)c(F)cc3c1=O)Oc1cc3ccccc3cc1-2 (stereo not shown) [compound 559] | 0.375
N=C(N)NCC1CCCC(CNC(=O)c2cn3c4c(c(N5CCC(N)C5)c(F)cc4c2=O)Oc2cc4ccccc4cc2-3)C1 (stereo not shown) [compound 560] | 0.37
N=C(N)NCCNC(=O)c1cn2c3c(c(NCCN4CCCC4)c(F)cc3c1=O)Oc1cc3ccccc3cc1-2 [compound 561] | 0.34
CN(C)CCCCNC(=O)c1cn2c3c(c(N4CC[C@@H](N)C4)c(F)cc3c1=O)Oc1cc3ccccc3cc1-2 [compound 567] | 0.25
CN(C)CCCCNC(=O)c1cn2c3cc4oc5cc([N+](=O)[O-])ccc5[nH]c4cc3oc3c(NCCC4CCCN4C)c(F)cc(c1=O)c32 (stereo not shown) [compound 585] | 0.18
CN(C)CCCCNc1c(F)cc2c(=O)c(C(=O)NCCN3CCCC3)cn3c4cc5oc6cc([N+](=O)[O-])ccc6[nH]c5cc4oc1c23 [compound 586] | 0.18
CN(C)CCCCNC(=O)c1cn2c3cc4oc5cc([N+](=O)[O-])ccc5[nH]c4cc3oc3c(NCCCCN(C)C)c(F)cc(c1=O)c32 [compound 587] | 0.18
CN(C)CCCCNCCC(=O)N[C@@H]1CCN(c2c(F)cc3c(=O)c(C(=O)NCCCN4CCN(C)CC4)cn4c3c2Oc2cc3c(cc2-4)oc2ccccc23)C1 [compound 588] | 0.18
CN(C)CCCCNC(=O)c1cn2c3c(c(N4CCC(N)C4)ccc3c1=O)Oc1cc3ccccc3cc1-2 (stereo not shown) [compound 589] | 0.18
O=C(NCCN1CCCC1)c1cn2c3cc4c(cc3oc3c(N5CC6CCCNC6C5)c(F)cc(c1=O)c32)c(=O)c1ccccc14 (stereo not shown) [compound 590] | 0.18
CN1CCCC1CCNC(=O)c1cn2c3c(c(NCCCCCO)c(F)cc3c1=O)Oc1cc3ccccc3cc1-2 (stereo not shown) [compound 1469] | 1.75
CCCCOCCCNc1c(F)cc2c(=O)c(C(=O)NCCC3CCCN3C)cn3c2c1Oc1cc2ccccc2cc1-3 (stereo not shown) [compound 1470] | 1.75
CN1CCCC1CCNC(=O)c1cn2c3c(c(NCC4CCCO4)c(F)cc3c1=O)Oc1cc3ccccc3cc1-2 (stereo not shown) [compound 1471] | 5
